# Assay results reported in patent publication US20180263985A1, “MODULATORS OF TOLL-LIKE RECEPTORS FOR THE TREATMENT OF HIV” (Gilead Sciences, Inc., priority 2015, published 2018).
# Experiments:
# Assay type in all cases: cell-based, human
# CD8+ T Cells = assay: Immune cell activation in PBMC cultures, flow cytometry: CD8+ T cells; conditions: 2 days; for CD8+ T Cells CD25 Fold / CD8+ T Cells CD28 Fold / CD8+ T Cells CD38 Fold / CD8+ T Cells CD69 Fold / CD8+ T Cells CD25 % / CD8+ T Cells CD28 % / CD8+ T Cells CD69 %: N = 6
# Method: (§1) TLR8 is expressed on multiple immune cell subsets. To determine how treatment with a TLR8 modulating compound affects activation of distinct cell populations, PBMCs were purified from HIV-1 infected subjects on cART, as described in Example 121 (anonymized participant IDs 184, 185, 188, 189, 190, and 191). […] After incubation, PBMCs were harvested and stained with antibodies conjugated to specific fluorophores (BD Biosciences) to delineate immune cell subsets: CD4 T cells (CD3+CD4+CD8−), CD8 T cells (CD3+CD8+CD4−), NK cells (CD3−CD56+CD16+), monocytes (CD3−CD14+), B cells (CD3−CD19+), and peripheral dendritic cells (DCs), defined as positive for HLA-DR and negative for a panel of markers: CD3, CD14, CD16, CD19, CD20, CD56 (Lin-1 lineage panel, BD Biosciences).
# (§2) Additional markers of activation, maturation, and effector function were included for cell subsets, as follows: CD4 and CD8 T cells (CD25, CD38, CD69, IFN-γ, granzyme B, perforin, TNF-α), NK cells (CD25, CD69, IFN-γ), monocytes (CD11c, CD16, CD80, CD86, CD163, TNF-α), B cells (CD40, CD69, CD80, CD86), and DC (CD11c, CD69, CD80, CD86, CD123, and CD163). Cells were stained for surface markers (CD3, CD4, CD8, CD11c, CD14, CD16, CD25, CD69, CD80, CD86, CD163), washed, treated with fixation and permeabilization buffer (eBioscience), and stained for intracellular markers (IFN-γ, granzyme B, perforin, TNF-α). Cells were evaluated by flow cytometry on a LSR Fortessa (BD Biosciences), and data was analyzed with FlowJo software (TreeStar).
# (§3) Data are expressed as geometric mean percentage (%) and as geometric mean fold-activation (Fold) for each marker and for each PBMC subset obtained from 4 or 6 subjects, as indicated. Fold activation is calculated as a ratio of the % positive for each marker for each PBMC subset at the indicated concentration of the compound of Example 15 relative to % positive for DMSO treated samples. Fold activations that are 1.5 are in bold.
# HIV-infected CD4 T cells = assay: PGT121 antibody-mediated killing of HIV-infected CD4 T cells, monocyte effector model; conditions: monocytes from 1 subject pre-treated 1 day with 11 or 33 nM
# Excerpt: NK cells and monocytes mediate antibody-dependent cellular cytotoxicity (ADCC) and antibody-dependent cellular phagocytosis (ADCP) respectively. To assess the ability of the compound of Example 15 to enhance ADCC and ADCP, two models were developed using monocytes or PBMCs as effector cells and HIV-infected CD4 T cells as target cells. PBMCs were isolated from 3 healthy subjects' leukaphereses (AlICells, participant IDs A4593, A4596, A4606), as described above. CD4 T cells were isolated from PBMCs using negative selection magnetic beads (EasySep, StemCell Technologies). CD4 T cells were spinfected with HIV-1 isolate 92HT593 (NIH AIDS Reagent Program) and cultured for 5 days at 37° C. For the PBMC model, autologous PBMCs were cultured for 5 days with vehicle control (DMSO) or Example 15 at 100 or 1000 nM. […] Marker staining was measured by flow cytometry using a LSR Fortessa (BD Biosciences) and analyzed with FlowJo software (TreeStar). The percent killing was determined by calculating the reduction of p24+CD4+ T cells mediated by PGT121 antibody relative to a no antibody control.
# PBMCs (FIG. 3) or monocytes (FIG. 4) were treated with DMSO or TLR8 agonist for 5 days (FIG. 3) or 1 day (FIG. 4) and then co-cultured for 1 day with autologous HIV-infected CD4 T cells−/+anti-HIV Env antibody PGT121. Reductions in %p24+ CD4+ T cells, relative to no antibody control, were measured by FACS. […]
# [1] = system: HIV-specific polyfunctional CD8 T cells; assay: Induced HIV-specific polyfunctional CD8+ T cells in PBMC cultures from HIV-1 infected subjects on cART
# NK Cells = assay: Immune cell activation in PBMC cultures, flow cytometry: NK cells; conditions: for NK Cells CD25 Fold / NK Cells CD69 Fold: 2 days, N = 6
# Method: as §1, §2, §3
compound,measurement,setting,value
CCCC[C@H](CO)Nc1nc(N)nc2cccnc12 [Example 15],CD8+ T Cells CD25 Fold,CD8+ T Cells; 10 nM vs DMSO,0.6 fold
same,CD8+ T Cells CD28 Fold,CD8+ T Cells; 10 nM vs DMSO,0.9 fold
same,CD8+ T Cells CD38 Fold,CD8+ T Cells; 10 nM vs DMSO,0.9 fold
same,CD8+ T Cells CD69 Fold,CD8+ T Cells; 10 nM vs DMSO,0.8 fold
same,CD8+ T Cells CD25 %,CD8+ T Cells; 10 nM,0.2%
same,CD8+ T Cells CD28 %,CD8+ T Cells; 10 nM,0.1%
same,CD8+ T Cells CD69 %,CD8+ T Cells; 10 nM,3.7%
same,CD8+ T Cells CD25 Fold,CD8+ T Cells; 100 nM vs DMSO,1.0 fold
same,CD8+ T Cells CD28 Fold,CD8+ T Cells; 100 nM vs DMSO,1.1 fold
same,CD8+ T Cells CD38 Fold,CD8+ T Cells; 100 nM vs DMSO,1.0 fold
same,CD8+ T Cells CD69 Fold,CD8+ T Cells; 100 nM vs DMSO,0.7 fold
same,CD8+ T Cells CD25 %,CD8+ T Cells; 100 nM,0.3%
same,CD8+ T Cells CD28 %,CD8+ T Cells; 100 nM,0.1%
same,CD8+ T Cells CD69 %,CD8+ T Cells; 100 nM,3.4%
same,CD8+ T Cells CD25 Fold,CD8+ T Cells; 1000 nM vs DMSO,2.2 fold
same,CD8+ T Cells CD28 Fold,CD8+ T Cells; 1000 nM vs DMSO,4.4 fold
same,CD8+ T Cells CD38 Fold,CD8+ T Cells; 1000 nM vs DMSO,2.0 fold
same,CD8+ T Cells CD69 Fold,CD8+ T Cells; 1000 nM vs DMSO,2.2 fold
same,CD8+ T Cells CD25 %,CD8+ T Cells; 1000 nM,0.7%
same,CD8+ T Cells CD28 %,CD8+ T Cells; 1000 nM,0.4%
same,CD8+ T Cells CD25 Fold,CD8+ T Cells; 3000 nM vs DMSO,3.0 fold
same,CD8+ T Cells CD28 Fold,CD8+ T Cells; 3000 nM vs DMSO,4.7 fold
same,CD8+ T Cells CD38 Fold,CD8+ T Cells; 3000 nM vs DMSO,2.0 fold
same,CD8+ T Cells CD69 Fold,CD8+ T Cells; 3000 nM vs DMSO,2.5 fold
same,CD8+ T Cells CD25 %,CD8+ T Cells; 3000 nM,0.9%
same,CD8+ T Cells CD28 %,CD8+ T Cells; 3000 nM,0.5%
same,Perforin in CD8+ T cells,CD8+ T Cells; Example 15 treatment,did not increase
same,PGT121-mediated killing of HIV-infected CD4+ T cells compared to DMSO control,HIV-infected CD4 T cells,markedly enhanced
same,Patients in whom increases in HIV-specific polyfunctional CD8 T cells were seen,[1]; 100 nM,3 of 5
same,Median HIV-specific polyfunctional CD8 T cells (% proliferating CD8+ cells double positive for IFN-γ and TNF-α),"[1]; 100 nM, HIV peptide pool, 5 subjects",0.99%
same,Patients in whom increases in HIV-specific polyfunctional CD8 T cells were seen,[1]; 1000 nM,4 of 5
same,Fold increase of median HIV-specific polyfunctional CD8 T cells,"[1]; 1000 nM with HIV specific peptide pool vs vehicle, p<0.05",2.7 fold
same,NK Cells CD25 Fold,NK Cells; 10 nM vs DMSO,0.4 fold
same,NK Cells CD69 Fold,NK Cells; 10 nM vs DMSO,0.4 fold
same,NK Cells CD25 Fold,NK Cells; 100 nM vs DMSO,1.6 fold
same,NK Cells CD69 Fold,NK Cells; 100 nM vs DMSO,0.6 fold
same,NK Cells CD69 Fold,NK Cells; 1000 nM vs DMSO,12.4 fold
same,NK Cells CD25 Fold,NK Cells; 3000 nM vs DMSO,9.6 fold
same,NK Cells CD69 Fold,NK Cells; 3000 nM vs DMSO,11.8 fold
same,Concentration of maximal activation of NK cells,NK Cells; increased expression of CD25 and CD69,1000 nM
